{"source": "patent US20060258581A1", "about": "“Methods and composition for derepressions of IAP-inhibited caspase” (priority 2001, published 2006)", "key": {"XIAP-inhibited caspase-3": {"molecular_target": "T1, XIAP-inhibited caspase-3 (Homo sapiens, UniProt P98170)", "T1 construct": "in a caspase derepression assay using full length XIAP; made in house; host or cells: bacteria", "T1 sequence (P98170 whole entry)": "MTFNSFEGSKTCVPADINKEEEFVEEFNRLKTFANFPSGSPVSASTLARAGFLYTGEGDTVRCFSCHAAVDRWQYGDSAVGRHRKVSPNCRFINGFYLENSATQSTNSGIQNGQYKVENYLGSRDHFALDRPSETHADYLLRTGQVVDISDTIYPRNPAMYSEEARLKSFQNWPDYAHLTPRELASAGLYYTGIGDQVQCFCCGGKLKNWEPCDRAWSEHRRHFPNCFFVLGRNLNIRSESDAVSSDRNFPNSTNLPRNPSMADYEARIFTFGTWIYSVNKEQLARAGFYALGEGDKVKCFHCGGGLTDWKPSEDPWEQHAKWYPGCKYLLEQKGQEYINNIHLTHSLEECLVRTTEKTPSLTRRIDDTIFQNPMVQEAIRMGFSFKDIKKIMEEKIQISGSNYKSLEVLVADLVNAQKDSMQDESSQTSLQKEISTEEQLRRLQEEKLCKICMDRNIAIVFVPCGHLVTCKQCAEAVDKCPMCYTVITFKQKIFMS", "assay": "IAP derepression assay: Ac-DEVD-AFC hydrolysis by caspase-3 in the presence of GST-XIAP", "format": "biochemical", "details": "for reversing XIAP-mediated suppression of caspase 3: 50 μg/ml, full length XIAP; for Activity* (relative caspase-3 activity: Vmax in the presence of compound / Vmax of controls having caspase-3 and XIAP): XIAP derepression assay", "procedure": "The ratio of Vmax for hydrolysis of Ac-DEVD-AFC in the presence and absence of the candidate mixture was calculated and used to identify those that contain an agent that derepresses an IAP-inhibited caspase.\nEach mixture was aliquoted in a 25 microliter volume and in duplicate to a well of a 96 well microtiter plate. […] Fluorescence of liberated AFC was immediately detected from each well for 30 minutes at 30 second intervals. The Vmax for hydrolysis of AC-DEVD-AFC from each well was measured using the softmax software package."}, "Jurkat leukemia cells": {"tested_on": "Jurkat leukemia cells", "assay": "Jurkat leukemia cell death, Annexin V/propidium iodide flow cytometry", "format": "cell-based", "details": "for cells killed: one day treatment", "procedure": "The following assay was used to test the ability of individual compounds from the TPI 1396 and TPI 1391 libraries to induce apoptosis of cultured tumor cell lines. Each of the compounds listed in Table IX was individually added to Jurkat leukemia cells (6.25×10^5 cells/mL) in RPMI containing 2.5% FBS at various concentrations for 20 hours. After incubation, cells were washed and stained with FITC-conjugated Annexin V antibody and propidium iodide (Biovision; Mountain View, Calif.). Cells were incubated for 20 minutes at room temperature in the dark and fluorescence was measured by flow cytometry (FACScan, Immunocytometry system; Becton-Dickinson; San Jose, Calif.). Cells staining positive for Annexin V were deemed non-viable.\nThe TPI I396-34 and TPI 1391-28 compounds were further tested as set forth below."}, "full length XIAP": {"molecular_target": "full length XIAP (Homo sapiens, UniProt P98170)", "sequence (P98170 whole entry)": "as above", "assay": "Potency of IAP antagonists in vitro (Table VIII; caspase derepression / SMAC competition with full length XIAP)", "details": "for Relative Potency (fold versus SMAC peptide): SMAC AVPI tetrapeptide = 1.0; for EC50: amount of compound necessary to restore caspase-3 activity to 50% of Vmax"}, "[1]": {"tested_on": "normal bone marrow mononuclear cells", "assay": "Normal bone marrow mononuclear cells versus Jurkat, Annexin V, 20 hours", "format": "cell-based", "details": "5 μM", "procedure": "After incubation, cells were washed, stained with FITC-conjugated Annexin V antibody and propidium iodide, and fluorescence measured by flow cytometry as described above."}, "XIAP": {"molecular_target": "XIAP (Homo sapiens, UniProt P98170)", "sequence (P98170 whole entry)": "as above", "assay": "SMAC binding/competition assay: biotinylated SMAC 7-mer on NeutrAvidin plates, GST-XIAP detected by anti-GST", "details": "in words", "procedure": "Peptide compounds containing unnatural amino acids in the 792 series, 792-33 and 792-35 (see FIG. 12 and 20 and Example XI), and an active compound in the TPI 1332 series, TPI 1332-69, were tested for binding activity in the SMAC binding assay as described above in Example X. For this assay, biotinylated SMAC 7-mer peptide (50 ng) was bound to 96 well plates coated with NeutrAvidin (Pierce, Rockford, Ill.) at 1 mg/ml in 100 μl per well of 50 mM HEPES pH 7.4, 100 mM NaCl 1 mM EDTA, 10% sucrose, 0.1% CHAPS, 10 mM DTT."}, "[2]": {"tested_on": "ALVA31 prostate cancer cells", "assay": "ALVA31 prostate cancer cell viability (XTT dye-reduction, trypan blue)", "format": "cell-based", "details": "24 hrs", "procedure": "The in vivo effects of TPI 792-33 or TPI 792-35, either individually or in combination with the cytotoxic anticancer drug VP-16 (etoposide), on derepression of XIAP-inhibited caspase and viability of ALVA31 cells was determined as follows. ALVA31 prostate cancer cells were seeded onto 96 well plates (10^4 cells/well) in 100 μL RPMI containing 2.5% fetal bovine serum (FBS). […] After another 24 hrs-incubation, cell viability was measured by the XTT dye-reduction assay (Roche, Molecular Biochemicals; Indianapolis, Ind.) and trypan blue dye exclusion assay."}}, "note": "Read-outs that look alike come from different tables or passages of the source. Where a SMILES comes first, the peptide text is derived from it. Where no end group is shown, it is not given here. [ ]: non-standard residue; d: D form. The star is where a group is joined. Phe(4-Cl) = N[C@@H](Cc1ccc(Cl)cc1)C(=O)O; dPhe(4-F) = N[C@H](Cc1ccc(F)cc1)C(=O)O; 2Nal = N[C@@H](Cc1ccc2ccccc2c1)C(=O)O; d2Nal = N[C@H](Cc1ccc2ccccc2c1)C(=O)O; Fmoc = O=C(OCC1c2ccccc2-c2ccccc21)*; 2Thi = N[C@@H](Cc1cccs1)C(=O)O; Cha = N[C@@H](CC1CCCCC1)C(=O)O", "data": [{"molecule": "(L-Cha)-(D-Nal)-(L-Trp)-(L-ThiAla) ([Cha][d2Nal]W[2Thi]) [TPI 1332-41]", "values": [{"measurement": "reversing XIAP-mediated suppression of caspase 3", "setting": "XIAP-inhibited caspase-3", "value": "Active"}]}, {"molecule": "(L-ThiAla)-(Lys-εFmoc)-(L-pClPhe)-(pF-D-F) ([2Thi]K(Fmoc)[Phe(4-Cl)][dPhe(4-F)]) [TPI 792-22]", "values": [{"measurement": "LC (lowest concentration with a ratio of 2 or higher in the derepression assay)", "setting": "XIAP-inhibited caspase-3; tested at 0.4, 2, 10 and 50", "value": 2, "unit": "µg/mL"}]}, {"molecule": "(L-Ala)-(D-Trp)-(L-Trp)-(L-ThiAla) (A[dW]W[2Thi]) [TPI 1332-47]", "values": [{"measurement": "reversing XIAP-mediated suppression of caspase 3", "setting": "XIAP-inhibited caspase-3", "value": "Active"}]}, {"molecule": "CCCC[C@@H](CNCc1ccccc1)N1C[C@@H](CC(C)C)N(CCc2cccc(C(F)(F)F)c2)C(=O)C1=O", "note": "[TPI 1391-4]", "values": [{"measurement": "% nonviable cells", "setting": "Jurkat leukemia cells; 1 µM", "value": 20, "unit": "%"}, {"measurement": "% nonviable cells", "setting": "Jurkat leukemia cells; 10 µM", "value": 48, "unit": "%"}, {"measurement": "% nonviable cells", "setting": "Jurkat leukemia cells; 25 µM", "value": 90, "unit": "%"}, {"measurement": "% nonviable cells", "setting": "Jurkat leukemia cells; 50 µM", "value": 86, "unit": "%"}]}, {"molecule": "(D-Nal)-(L-Nal)-(L-pClPhe)-(Lys-εFmoc) ([d2Nal][2Nal][Phe(4-Cl)]K(Fmoc)) [TPI 792-15]", "values": [{"measurement": "LC (lowest concentration with a ratio of 2 or higher in the derepression assay)", "setting": "XIAP-inhibited caspase-3; tested at 0.4, 2, 10 and 50", "value": 2, "unit": "µg/mL"}]}, {"molecule": "CC(C)C[C@@H]1CN([C@H](CNCc2ccccc2)Cc2ccc3ccccc3c2)C(=O)C(=O)N1CCc1cccc(C(F)(F)F)c1", "note": "[TPI 1391-28]", "values": [{"measurement": "% nonviable cells", "setting": "Jurkat leukemia cells; 1 µM", "value": 19, "unit": "%"}, {"measurement": "cells killed", "setting": "Jurkat leukemia cells; 5 μM", "value": "about 45%"}, {"measurement": "cells killed", "setting": "Jurkat leukemia cells; 8 μM", "value": "~80", "unit": "%"}, {"measurement": "% nonviable cells", "setting": "Jurkat leukemia cells; 10 µM", "value": 55, "unit": "%"}, {"measurement": "% nonviable cells", "setting": "Jurkat leukemia cells; 25 µM", "value": 87, "unit": "%"}, {"measurement": "% nonviable cells", "setting": "Jurkat leukemia cells; 50 µM", "value": 91, "unit": "%"}, {"measurement": "EC50", "setting": "Jurkat leukemia cells; one-day exposure, read-out: EC50 for killing Jurkat leukemia cells", "value": "~6.5", "unit": "µM"}, {"measurement": "Relative Potency (fold versus SMAC peptide)", "setting": "full length XIAP", "value": 5}, {"measurement": "EC50", "setting": "full length XIAP", "value": 25.1, "unit": "µM"}, {"measurement": "toxicity to normal bone marrow cells", "setting": "[1]", "value": "little toxicity"}]}, {"molecule": "O=C(NC[C@@H](CC1CCCCC1)N(C[C@@H]1CCCN1CCC12CC3CC(CC(C3)C1)C2)C(=O)Nc1ccccc1)Nc1ccccc1", "note": "[TPI 1396-35]", "values": [{"measurement": "Activity* (relative caspase-3 activity: Vmax in the presence of compound / Vmax of controls having caspase-3 and XIAP)", "setting": "XIAP-inhibited caspase-3", "value": 2.5}]}, {"molecule": "O=C1C(=O)N([C@H](CNCc2ccccc2)Cc2ccc3ccccc3c2)C[C@H](Cc2ccc3ccccc3c2)N1CCc1cccc(C(F)(F)F)c1", "note": "[TPI 1391-34]", "values": [{"measurement": "Relative Potency (fold versus SMAC peptide)", "setting": "full length XIAP", "value": 3.3}, {"measurement": "EC50", "setting": "full length XIAP", "value": 39.4, "unit": "µM"}]}, {"molecule": "CCCC[C@@H](CNCc1ccccc1)N1C[C@@H](CC(C)C)N(CC2CCC(C(C)(C)C)CC2)C(=O)C1=O", "note": "(stereo partly shown) [TPI 1391-5]", "values": [{"measurement": "% nonviable cells", "setting": "Jurkat leukemia cells; 1 µM", "value": 17, "unit": "%"}, {"measurement": "% nonviable cells", "setting": "Jurkat leukemia cells; 10 µM", "value": 36, "unit": "%"}, {"measurement": "% nonviable cells", "setting": "Jurkat leukemia cells; 25 µM", "value": 88, "unit": "%"}, {"measurement": "% nonviable cells", "setting": "Jurkat leukemia cells; 50 µM", "value": 88, "unit": "%"}]}, {"molecule": "N[C@@H](Cc1cccs1)C(=O)N[C@@H](Cc1ccc2ccccc2c1)C(=O)N[C@@H](Cc1ccc(Cl)cc1)C(=O)N[C@@H](CCCCNC(=O)OCC1c2ccccc2-c2ccccc21)C(=O)O", "note": "[TPI 792-33, L-3-(2-thienyl)-alanyl-L-(2-naphthyl)-alanyl-L-p-chloro-phenylalanyl-L-(e-fluorenylmethyloxycarbonyl)-lysine] (H-[2Thi][2Nal][Phe(4-Cl)]K(Fmoc)-OH)", "values": [{"measurement": "competition with XIAP binding to the SMAC peptide (SMAC competition assay)", "setting": "XIAP", "value": "activity"}, {"measurement": "cell viability, compound alone", "setting": "[2]; peptides 40 μM, VP-16 100 μM", "value": "reduced viability of these prostate cancer cells by nearly half"}, {"measurement": "tumor cell killing, combination with VP-16", "setting": "[2]; peptide 40 μM with VP-16 100 μM", "value": "more potent tumor cell killing compared to VP-16 alone"}, {"measurement": "LC (lowest concentration with a ratio of 2 or higher in the derepression assay)", "setting": "XIAP-inhibited caspase-3", "value": 0.4, "unit": "micrograms per milliliter"}, {"measurement": "activity in the caspase derepression assay using full length XIAP", "setting": "XIAP-inhibited caspase-3; in words", "value": "activity"}, {"measurement": "LC (lowest concentration with a ratio of 2 or higher in the derepression assay)", "setting": "XIAP-inhibited caspase-3; tested at 0.4, 2, 10 and 50", "value": 0.4, "unit": "µg/mL"}, {"measurement": "Relative Potency (fold versus SMAC peptide)", "setting": "full length XIAP", "value": 5.2}]}, {"molecule": "CCCC[C@@H](CNCc1ccccc1)N1C[C@@H](CC(C)C)N(CC(C)c2ccc(CC(C)C)cc2)C(=O)C1=O", "note": "(stereo partly shown) [TPI 1391-1]", "values": [{"measurement": "% nonviable cells", "setting": "Jurkat leukemia cells; 1 µM", "value": 18, "unit": "%"}, {"measurement": "% nonviable cells", "setting": "Jurkat leukemia cells; 10 µM", "value": 20, "unit": "%"}, {"measurement": "% nonviable cells", "setting": "Jurkat leukemia cells; 25 µM", "value": 69, "unit": "%"}, {"measurement": "% nonviable cells", "setting": "Jurkat leukemia cells; 50 µM", "value": 91, "unit": "%"}]}, {"molecule": "COc1ccc(CCN(CCCC[C@@H](CN(C(=O)Nc2ccccc2)[C@@H](CNC(=O)Nc2ccccc2)CC2CCCCC2)N(C)C(=O)Nc2ccccc2)C(=O)Nc2ccccc2)cc1", "note": "[TPI 1396-25]", "values": [{"measurement": "Activity* (relative caspase-3 activity: Vmax in the presence of compound / Vmax of controls having caspase-3 and XIAP)", "setting": "XIAP-inhibited caspase-3", "value": 1.6}]}]}
